Assay results from patent US9199946B2, “Pyrimidinone carboxamide inhibitors of endothelial lipase” (BRISTOL-MYERS SQUIBB COMPANY, priority 2012, dated 2015).

Each molecule was assayed against T1, Endothelial lipase (EL) (Homo sapiens, UniProt Q9Y5X9) (assay: Endothelial lipase (EL) enzymatic assay with fluorescent substrate A10070 in DMPG vesicles). Settings: conditioned media from HT-1080 cells overexpressing endogenous EL; 20 min preincubation at 37° C.; read-out: EL IC50.
T1 construct: HT-1080 cells, which were transformed by RAGE technology (Athersys) to overexpress endogenous EL; endogenous in cells; conditioned medium used as the enzyme source
T1 sequence (Q9Y5X9 21-500): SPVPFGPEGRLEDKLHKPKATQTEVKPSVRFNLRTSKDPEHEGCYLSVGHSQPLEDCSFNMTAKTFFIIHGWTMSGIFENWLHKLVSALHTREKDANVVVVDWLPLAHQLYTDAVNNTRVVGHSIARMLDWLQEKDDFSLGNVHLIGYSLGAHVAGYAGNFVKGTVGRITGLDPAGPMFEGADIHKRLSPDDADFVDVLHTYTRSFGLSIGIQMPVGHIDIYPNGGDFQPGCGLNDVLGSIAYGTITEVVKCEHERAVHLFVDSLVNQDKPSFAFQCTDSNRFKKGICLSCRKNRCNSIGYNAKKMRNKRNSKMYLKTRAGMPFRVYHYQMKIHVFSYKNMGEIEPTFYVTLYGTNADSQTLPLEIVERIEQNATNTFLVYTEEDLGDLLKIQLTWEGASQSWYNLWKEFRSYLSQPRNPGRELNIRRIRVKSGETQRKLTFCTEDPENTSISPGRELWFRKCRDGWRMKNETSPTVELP
Format: biochemical
Method: Endothelial lipase activity was measured using a fluorescent substrate, A10070, (Invitrogen, CA) doped into an artificial vesicle containing DMPG (Avanti Polar Lipids) as the excipient. Vesicles were prepared by combining 285 μL of 1 mM DMPG in a 1:1 mixture of MeOH and CHCl3 with 15 μL of 1 mM A10070 in a 1:1 mixture of MeOH and CHCl3. The mixture was dried under nitrogen and resuspended in 150 μL of 50 mM HEPES pH 8.0 buffer containing 100 mM NaCl and 0.2 mM EDTA. The sample was allowed to sit at rt for 15 min and then was sonicated 3×4 mins on ice with a Branson Sonicator using duty cycle 1. This preparation provides vesicles with a mole fraction of 0.05 for the FRET substrate.
The enzymatic assay was measured using white, opaque 96-well half area plates. Each well contained 60 μL of assay buffer (50 mM HEPES pH 8.0, 50 mM NaCl and 1 mM CaCl2) and 2 ul of a DMSO solution containing compound of interest. Conditioned media obtained from HT-1080 cells, which were transformed by RAGE technology (Athersys) to overexpress endogenous EL, was added and the reaction was allowed to incubate for 20 min at 37° C. with gentle agitation. The reaction was started by the addition of 20 μL of a 1:4 dilution of vesicles. The final total reaction volume was 100 μL. The reaction rates were measured on a Gemini plate reader with an excitation wavelength of 488 nm and an emission of 530 nm. Readings were taken every 20 seconds for 10 min with agitation between each reading. The slope of the linear portion of the readout was used to calculate the rate of the reaction.

IC50	Structure (SMILES)
0.496 µM	Nc1c(C(=O)N[C@@H]2CC[C@H](c3ccc(-c4cccc5ncccc45)cc3)C2)[nH]c(=O)[nH]c1=O [Example 175, 5-amino-2,6-dioxo-N-((1R,3S)-3-(4-(quinolin-5-yl)phenyl)cyclopentyl)-1,2,3,6-tetrahydropyrimidine-4-carboxamide]

Same assay, conditions: range observed in the EL assay; read-out: EL IC50 values

IC50	Structure (SMILES)
≤ 10 µM	Nc1c(C(=O)N[C@H]2CC[C@@H](c3ccccc3)CC2)[nH]c(=O)[nH]c1=O [Example 3, 5-amino-2,6-dioxo-N-(cis-4-phenylcyclohexyl)-1,2,3,6-tetrahydropyrimidine-4-carboxamide]
≤ 10 µM	Nc1c(C(=O)NC2CCC(c3ccc(OCc4ccccc4)cc3)C2)[nH]c(=O)[nH]c1=O (single isomer, unassigned) [Example 151, 5-amino-N-(3-(4-(benzyloxy)phenyl)cyclopentyl)-2,6-dioxo-1,2,3,6-tetrahydropyrimidine-4-carboxamide]
≤ 10 µM	COc1ccc(C2CCC(NC(=O)c3[nH]c(=O)[nH]c(=O)c3N)C2)cc1 (centres unmarked) [Example 107, 5-amino-N-(3-(4-methoxyphenyl)cyclopentyl)-2,6-dioxo-1,2,3,6-tetrahydropyrimidine-4-carboxamide]
≤ 10 µM	Nc1c(C(=O)N[C@@H]2CCCc3c(NC(=O)c4ccccc4)cccc32)[nH]c(=O)[nH]c1=O [Example 124, (R)-5-amino-N-(5-benzamido-1,2,3,4-tetrahydronaphthalen-1-yl)-2,6-dioxo-1,2,3,6-tetrahydropyrimidine-4-carboxamide]
≤ 10 µM	Nc1c(C(=O)N[C@@H]2CC[C@H](c3ccc(-c4cccc5ncccc45)cc3)C2)[nH]c(=O)[nH]c1=O [Example 175, 5-amino-2,6-dioxo-N-((1R,3S)-3-(4-(quinolin-5-yl)phenyl)cyclopentyl)-1,2,3,6-tetrahydropyrimidine-4-carboxamide]
≤ 10 µM	O=C(N[C@H]1CC[C@@H](c2ccccc2)CC1)c1[nH]c(=O)[nH]c(=O)c1NC1CCCc2ccccc21 (stereo partly drawn) [Example 224, 2,6-dioxo-N-(cis-4-phenylcyclohexyl)-5-(1,2,3,4-tetrahydronaphthalen-1-ylamino)-1,2,3,6-tetrahydropyrimidine-4-carboxamide]
≤ 10 µM	Nc1c(C(=O)N[C@@H]2CCc3cc(Oc4ccccc4)ccc32)[nH]c(=O)[nH]c1=O [Example 89, (R)-5-amino-2,6-dioxo-N-(5-phenoxy-2,3-dihydro-1H-inden-1-yl)-1,2,3,6-tetrahydropyrimidine-4-carboxamide]
≤ 10 µM	O=C(N[C@H]1CC[C@@H](c2ccccc2)CC1)c1[nH]c(=O)[nH]c(=O)c1NCc1ccncc1 [Example 227, 2,6-dioxo-N-(cis-4-phenylcyclohexyl)-5-(pyridin-4-ylmethylamino)-1,2,3,6-tetrahydropyrimidine-4-carboxamide]
≤ 10 µM	CC(C)CNc1c(C(=O)N[C@H]2CC[C@@H](c3ccccc3)CC2)[nH]c(=O)[nH]c1=O [Example 206, 5-(isobutylamino)-2,6-dioxo-N-(cis-4-phenylcyclohexyl)-1,2,3,6-tetrahydropyrimidine-4-carboxamide]
≤ 10 µM	CC(C)(C)C1CCC(NC(=O)c2[nH]c(=O)[nH]c(=O)c2N)CC1 (centres unmarked) [Example 44, 5-amino-N-(4-tert-butylcyclohexyl)-2,6-dioxo-1,2,3,6-tetrahydropyrimidine-4-carboxamide]
≤ 10 µM	Nc1c(C(=O)N[C@H]2CC[C@@H](c3ccc(-c4ccccc4)cc3)C2)[nH]c(=O)[nH]c1=O [Example 167, 5-amino-N-((1S,3R)-3-(biphenyl-4-yl)cyclopentyl)-2,6-dioxo-1,2,3,6-tetrahydropyrimidine-4-carboxamide]
≤ 10 µM	O=C(N[C@@H]1CC[C@@H](C(=O)N[C@H]2CCCc3ccccc32)C1)c1[nH]c(=O)[nH]c(=O)c1O [Example 298, 5-hydroxy-2,6-dioxo-N-((1R,3R)-3-((S)-1,2,3,4-tetrahydronaphthalen-1-ylcarbamoyl)cyclopentyl)-1,2,3,6-tetrahydropyrimidine-4-carboxamide]
≤ 10 µM	O=C(N[C@H]1CC[C@@H](c2ccccc2)CC1)c1[nH]c(=O)[nH]c(=O)c1NCCc1c[nH]cn1 [Example 213, 5-(2-(1H-imidazol-4-yl)ethylamino)-2,6-dioxo-N-(cis-4-phenylcyclohexyl)-1,2,3,6-tetrahydropyrimidine-4-carboxamide]
